Source: PMC5045942, “Evaluation of a novel PXR‐knockout in HepaRG™ cells” (Pharmacology Research & Perspectives, 2016)
Values joined by “and” are separate entries in the source; they are usually repeats but may differ in a detail not shown here. Identical values can stand only once. Like-named read-outs stand apart in the source and are kept apart here.

What was measured:
CYP2B6 mRNA [1] = test: CYP2B6 mRNA induction in 5F HepaRG control cells (real-time PCR); type: in vitro ADME, human; settings: for E max, induction of CYP2B6 mRNA, 5F / EC50 / EC50 at 48 h: 5F cells; for EC50 at 48 h: human
Description: (§1) 5F, CAR‐KO, and PXR‐KO HepaRG cells were thawed in recovery medium and plated into 96‐well collagen‐1‐coated plates at a volume of 200 μL/well. The cells were incubated at 37°C in a humidified incubator with 5% CO2 for 48 h. The recovery medium was replaced with maintenance medium and procedure repeated every Monday, Wednesday, and Friday for 18 days. On day 18, the maintenance medium was replaced with pre‐incubation medium for 72 h. On day 21, the cells were incubated with test compounds in serum‐free induction medium for 48 h. Test compounds were freshly dissolved in DMSO and then serum‐free induction medium to achieve a final DMSO concentration of 0.1% every 24 h. For enzyme induction assays, cells were thawed into recovery medium and plated into 24‐well plates at a volume of 1 mL/well. Culture conditions were as described above.
(§2) mRNA was extracted from the cell monolayers using the SV96 total RNA isolation system according to the manufacturer's instructions. Reverse transcription of mRNA to cDNA was completed using Taqman reverse transcription (RT) assay. […] An Agilent Mx3005P thermocycler was used to run a thermal cycle of: 10 min at 25°C, 30 min at 37°C, 5 min at 95°C, and a hold phase at 4°C.
(§3) An Agilent Mx3005P thermocycler was used to determine the gene expression of selected genes. Real‐time PCR solutions were prepared as described by the manufacturer. Each reaction contained 12.5 μL volume. […] PCR conditions were 15 min at 95°C (to activate polymerase, denature cDNA, and initiate PCR) followed by 40 cycles of 15 sec at 94°C (denaturation), and 60 sec at 60°C (annealing/extension of the product). Fluorescence was measured at the end of each cycle.
(§4) Gene expression data were compared to an average of GAPDH and normalized to the control sample using the comparative threshold cycle (C(t)) method (Ct = 2^−∆∆C(t)). […] Where possible data were fitted to a sigmoidal E max model (WinNonLin Phoenix, Pharsight, 6.3.0.395). All human hepatocyte data are the average of duplicate experiments and three compound concentrations. HepaRG WT are the average of triplicate experiments completed in duplicate. HepaRG 5F and HepaRG PXR‐KO data are the average of duplicate experiments and duplicate replicates of each compound concentration (six concentrations).

CYP2B6 mRNA [2] = test: CYP2B6 mRNA induction in HepaRG wild-type cells (real-time PCR); type: in vitro ADME, human; settings: for E max, induction of CYP2B6 mRNA, HepaRG: E max ± SD; for EC50: human, EC50 ± SD
Description: (§5) HepaRG cells were thawed in thawing and maintenance medium and plated into 96‐well collagen‐1‐coated plates at a volume of 200 μL/well. The cells were incubated at 37°C in a humidified incubator with 5% CO2 for 72 h. Test compounds were freshly dissolved in DMSO and then serum‐free induction medium to achieve a final DMSO concentration of 0.1% every 24 h.
as §2, §3, §4

CYP2B6 mRNA [3] = test: CYP2B6 mRNA induction in PXR-KO HepaRG cells (real-time PCR); type: in vitro ADME, human; settings: for EC50 for CYP2B6 in PXR-KO cells in comparison to other cell types (in words): PXR-KO vs 5F cells / other cell types; for E max for CYP2B6 in PXR-KO cells in comparison to other cell types (in words): PXR-KO vs 5F, HepaRG WT cells and PHHs; for EC50 at 48 h: human
Description: as §1, §2, §3, §4

CYP3A4 mRNA [4] = system: CYP3A4 mRNA
Description: as §1, §2, §3, §4

CYP3A4 mRNA [5] = test: CYP3A4 mRNA induction in HepaRG wild-type cells (real-time PCR); settings: for E max, induction of CYP3A4 mRNA, HepaRG: E max ± SD; for EC50: human
Description: as §5, §2, §3, §4

CYP3A4 mRNA [6] = test: CYP3A4 mRNA induction in 5F HepaRG control cells (real-time PCR); settings: for EC50 at 48 h: human, 5F HepaRG control cells; for EC50: read-out: EC50, induction of CYP3A4 mRNA, 5F
Description: as §1, §2, §3, §4

CYP2B6 mRNA [7] = test: in vitro; settings: human
Description: (§6) Cryopreserved male human hepatocytes were thawed in CHRM and plated into a 96‐well collagen‐1‐coated plate at a density of 7.5 × 10^4 viable cells in 200 μL of CHPM. Trypan blue exclusion was used to determine cell viability with a cut‐off of 85% viability. The cells were incubated at 37°C in a humidified incubator with 5% CO2. Plating medium was replaced with maintenance medium following 4 h incubation and then maintained overnight before 48 h treatment with test compound. Test compounds were freshly dissolved in dimethyl sulfoxide (DMSO) and then culture medium to achieve a final DMSO concentration of 0.1%. A vehicle control of medium with 0.1% DMSO was included in all studies.
as §2, §3
(§7) Gene expression data were compared to an average of GAPDH and normalized to the control sample using the comparative threshold cycle (C(t)) method (Ct = 2^−∆∆C(t)). […] Where possible data were fitted to a sigmoidal E max model (WinNonLin Phoenix, Pharsight, 6.3.0.395). All human hepatocyte data are the average of duplicate experiments and three compound concentrations.

CYP2B6 mRNA [8] = test: CYP2B6 mRNA induction in cryopreserved primary human hepatocytes (real-time PCR); settings: 48 h; for E max, induction of CYP2B6 mRNA, primary human hepatocyte donor D3: donor D3 (Hu8132)
Description: as §6, §2, §3, §7

CYP2B6 = CYP2B6 enzyme activity induction (bupropion, LC-MS/MS) in PXR-KO and 5F cells; type: in vitro ADME, human; settings: 1.5 μmol/L CITCO, 258 μmol/L phenobarbital; bupropion 100 μmol/L, 2 h; PXR-KO vs 5F cells (Fig. 3)
Description: Culture conditions were as described above.
P450 enzyme activity was assessed by incubating whole‐cell monolayers for 2 h at 37°C using 100 μmol/L bupropion (CYP2B6) in unsupplemented Williams E media with a final concentration of 0.1% DMSO. Reactions were quenched by removing supernatants and diluting 1:2 into ice‐cold acetonitrile. Samples were stored at −20°C until LC‐MS/MS analysis was completed.
LC‐MS/MS analysis utilized an API‐4000 Q Trap mass spectrometer with a Turbo V atmospheric pressure electrospray ionization source (AB SCIEX, Framingham, MA). Samples (40 μL) were injected onto a Fortis C18 column (3 × 50 mm, 5 μm) and eluted by a mobile phase gradient specific for each test article (mobile phase A: 0.1% formic acid in water; mobile phase B: 0.1% formic acid in acetonitrile). Flow rate was 0.5 mL/min. MS conditions: positive or negative ionization mode (4.5 kV spray voltage); source temperature of 450°C with multiple reaction monitoring specific for each analyte and internal standard parent–product ion pairs. Peak areas of analyte and internal standard and resulting ratios were quantified using Analyst 1.5.2 (AB SCIEX, Framingham, MA).

CYP3A4 mRNA [9] = settings: human
Description: as §1, §2, §3, §4

CYP3A4 mRNA [10] = settings: human; remark: listed apart in the source
Description: as §5, §2, §3, §4

CYP3A4 mRNA [11] = system: CYP3A4 mRNA; remark: listed apart in the source
Description: (§8) The cells were incubated at 37°C in a humidified incubator with 5% CO2. Plating medium was replaced with maintenance medium following 4 h incubation and then maintained overnight before 48 h treatment with test compound. Test compounds were freshly dissolved in dimethyl sulfoxide (DMSO) and then culture medium to achieve a final DMSO concentration of 0.1%. A vehicle control of medium with 0.1% DMSO was included in all studies.
as §2, §3, §7

CYP3A4 mRNA [12] = test: in vitro; settings: human, EC50, induction of CYP3A4 mRNA, 5F
Description: as §1, §2, §3, §4

CYP3A4 mRNA [13] = test: in vitro; settings: human, EC50, induction of CYP3A4 mRNA
Description: as §8, §2, §3, §7

CYP3A4 mRNA [14] = test: CYP3A4 mRNA induction in PXR-KO HepaRG cells (real-time PCR)
Description: as §1, §2, §3, §4

CYP3A4 mRNA [15] = test: CYP3A4 mRNA induction in cryopreserved primary human hepatocytes (real-time PCR); settings: for EC50 at 48 h: human, cryopreserved primary human hepatocytes
Description: as §8, §2, §3, §7

[16] = 48 h, value of each individual experiment (two per cell)
[17] = 5F HepaRG control cells, 48 h, value of each individual experiment (two per cell), read-out: EC50, induction of CYP2B6 mRNA, 5F
[18] = 5F cells, 48 h, value of each individual experiment (two per cell)
[19] = EC50, induction of CYP3A4 mRNA, 5F, 5F cells, 48 h, value of each individual experiment (two per cell)
[20] = PXR-KO HepaRG cells, compared with 5F cells
[21] = cryopreserved primary human hepatocytes, donor D1 (Hu1455)
[22] = cryopreserved primary human hepatocytes, donor D3 (Hu8132)
[23] = donor D1 (Hu1455), NE = no effect observed, relative gene expression fold change <2
[24] = PXR-KO vs 5F, HepaRG WT cells and PHHs

Row | Compound | E max, induction of CYP2B6 mRNA, 5F (CYP2B6 mRNA [1]; [16]) | EC50 (CYP2B6 mRNA [1]; [16]) | EC50 at 48 h (CYP2B6 mRNA [1]; [17]) | E max, induction of CYP2B6 mRNA, HepaRG (CYP2B6 mRNA [2]) | EC50 (CYP2B6 mRNA [2]) | EC50 for CYP2B6 in PXR-KO cells in comparison to other cell types (in words) (CYP2B6 mRNA [3]) | E max for CYP2B6 in PXR-KO cells in comparison to other cell types (in words) (CYP2B6 mRNA [3]) | CYP3A4 induction response in PXR-KO cells (in words) (CYP3A4 mRNA [4]) | E max, induction of CYP3A4 mRNA, HepaRG (CYP3A4 mRNA [5]) | EC50 (CYP3A4 mRNA [5]) | E max, induction of CYP3A4 mRNA, 5F (CYP3A4 mRNA [6]; [18]) | EC50 at 48 h (CYP3A4 mRNA [6]; [19]) | EC50 (CYP3A4 mRNA [6]; [18]) | EC50 at 48 h (CYP2B6 mRNA [7]; [21]) | EC50 at 48 h (CYP2B6 mRNA [7]; [22]) | E max, induction of CYP2B6 mRNA, primary human hepatocyte donor D1 (CYP2B6 mRNA [8]; [23]) | E max, induction of CYP2B6 mRNA, primary human hepatocyte donor D3 (CYP2B6 mRNA [8]) | EC50 at 48 h (CYP2B6 mRNA [3]; PXR-KO HepaRG cells, 48 h) | CYP2B6-induced activity response (CYP2B6) | also measured
1 | O=C1NC(=O)C(c2ccccc2)(c2ccccc2)N1 [Phenytoin, phenytoin] | 7.3 and 10.6 | 7.8 µM | 5.1 µM | 14.2 ± 3.7 | 2.7 ± 1.7 µM | increased | lower | much reduced | 89.6 ± 8.1 | 42.6 ± 6.6 µM | 16.0 and 20.8 | 18.1 µM | 19.9 µM | – | – | – | – | – | – | E max for CYP3A4 in PXR-KO cells in comparison to other cell types (in words) (CYP3A4 mRNA [4]): lower; EC50 for CYP3A4 in PXR-KO cells in comparison to other cell types (in words) (CYP3A4 mRNA [4]): increased
2 | CO[C@H]1/C=C/O[C@@]2(C)Oc3c(C)c(O)c4c(O)c(c(/C=N/N5CCN(C)CC5)c(O)c4c3C2=O)NC(=O)/C(C)=C\C=C\[C@H](C)[C@H](O)[C@@H](C)[C@@H](O)[C@@H](C)[C@H](OC(C)=O)[C@@H]1C [Rifampicin, rifampicin] | 18.9 and 12.9 | 1.7 µM and 0.7 µM | – | 5.2 ± 2.9 | 0.3 ± 0.2 µM | – | – | – | – | – | – | – | – | 0.1 µM | 5.5 µM | 3.9 | 16.3 | – | – | CYP2B6 induction response in PXR-KO cells (in words) (CYP2B6 mRNA [3]; [20]): No response; EC50 at 48 h (CYP2B6 mRNA [7]; cryopreserved primary human hepatocytes, donor D2 (Hu1601)): 5.2 µM; E max, induction of CYP2B6 mRNA, primary human hepatocyte donor D2 (CYP2B6 mRNA [8]; donor D2 (Hu1601), NE = no effect observed, relative gene expression fold change <2): 4.3
3 | CCC1(c2ccccc2)C(=O)NC(=O)NC1=O [Phenobarbital, phenobarbital] | 5.9 and 5.5 | 195 µM | – | 68.9 ± 47.3 | 170 ± 6.8 µM | in agreement between the cell lines | – | much reduced | – | – | – | – | – | – | – | 20.2 | 26.3 | 98 µM | greater in the PXR‐KO cells | EC50 at 48 h (CYP2B6 mRNA [1]; 48 h, value of each individual experiment (two per cell), read-out: EC50, induction of CYP2B6 mRNA, 5F): 145 µM; E max of CYP2B6 induction in PXR-KO cells (CYP2B6 mRNA [3]; PXR-KO HepaRG cells, 48 h): 11.8; E max, induction of CYP3A4 mRNA, 5F (CYP3A4 mRNA [9]): 17.3, 28.1; EC50 (CYP3A4 mRNA [9]): 166 µM; E max, induction of CYP3A4 mRNA, HepaRG (CYP3A4 mRNA [10]): 110.0 ± 12.8; E max, induction of CYP3A4 mRNA, primary human hepatocyte donor D2 (CYP3A4 mRNA [11]; hepatocytes): 13.3; E max, induction of CYP3A4 mRNA, primary human hepatocyte donor D3 (CYP3A4 mRNA [11]; hepatocytes): 81.8; EC50 (CYP3A4 mRNA [11]; male, human): 251 µM; E max of CYP3A4 induction in PXR-KO cells (CYP3A4 mRNA [4]; human): 3.3; EC50 (CYP3A4 mRNA [12]): 108 µM; EC50 (CYP3A4 mRNA [13]; primary human hepatocyte donor D1): 250 µM; EC50 (CYP3A4 mRNA [13]; primary human hepatocyte donor D2): 366 µM; EC50 (CYP3A4 mRNA [13]; primary human hepatocyte donor D3): 177 µM; EC50 at 48 h (CYP2B6 mRNA [7]; male): 186 µM; EC50 (CYP2B6 mRNA [8]; read-out: EC50, induction of CYP2B6 mRNA, primary human hepatocyte donor D1, donor D1 (Hu1455)): 98.9 µM
4 | Clc1ccc(-c2nc3sccn3c2C=NOCc2ccc(Cl)c(Cl)c2)cc1 [CITCO, 6‐(4‐chlorophenyl)imidazo[2,1‐b][1,3]thiazole‐5‐carbaldehyde O‐(3,4‐dichlorobenzyl)oxime] | 17.0 and 22.5 | 1 µM | – | 14.2 ± 7.4 | 0.03 ± 0.01 µM | – | similar | – | 21.1 ± 4.6 | 1.5 ± 0.1 µM | 6.4 and 7.1 | 1.9 µM | 2 µM | 0.2 µM | 0.3 µM | 6.0 | 5.5 | 0.3 µM | greater in the PXR‐KO cells | CYP2B6 induction response in 5F cells (in words) (CYP2B6 mRNA [1]): responsive; EC50 at 48 h (CYP2B6 mRNA [1]; 5F HepaRG control cells, single value given in text, data the average of two experiments, read-out: EC50 of CYP2B6 induction in 5F cells): 0.5 µM; CYP3A4 induction response in PXR-KO cells (in words) (CYP3A4 mRNA [14]; [20]): maintained; E max, induction of CYP3A4 mRNA, primary human hepatocyte donor D1 (CYP3A4 mRNA [15]; donor D1 (Hu1455), 48 h): 3.5; E max, induction of CYP3A4 mRNA, primary human hepatocyte donor D3 (CYP3A4 mRNA [15]; donor D3 (Hu8132), 48 h): 2.3; EC50 at 48 h (CYP3A4 mRNA [15]; donor D1 (Hu1455)): 0.3 µM; EC50 at 48 h (CYP3A4 mRNA [15]; donor D3 (Hu8132)): 0.4 µM
5 | NC(=O)N1c2ccccc2C=Cc2ccccc21 [Carbamazepine, carbamazepine] | 3.1 and 7.4 | 5.4 µM | 8.4 µM | 10.7 ± 4.3 | 12 ± 7.3 µM | increased | lower | – | 33.5 ± 12.6 | 24 ± 12.2 µM | 29.3 and 21.6 | 37.4 µM | – | – | – | – | – | – | – | E max for CYP3A4 in PXR-KO cells in comparison to other cell types (in words) (CYP3A4 mRNA [14]; [24]): ~four‐fold lower; EC50 for CYP3A4 in PXR-KO cells in comparison to other cell types (in words) (CYP3A4 mRNA [14]; [24]): similar; EC50 at 48 h (CYP3A4 mRNA [14]; human, PXR-KO HepaRG cells): 49 µM; EC50 at 48 h (CYP3A4 mRNA [6]; EC50 of CYP3A4 induction in 5F cells, single value given in text, data the average of two experiments): 38 µM
